# How the values were obtained:
# Type in all cases: in vivo
# mice [1] = assay: Luc expression (bioluminescence, total flux) after intravenous administration to mice
# How it was run: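 Lipid nanoparticle formulations carrying Luc mRNA were given intravenously to mice (n=6) at 0.5 mg/kg. Bioluminescence was imaged at 3, 6 and 24 h. Total flux was expressed as AUC relative to the standard MC3 formulation.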
# mice [2] = assay: Luc expression in liver, lung, spleen and femur after intravenous administration to mice; details: Luc mRNA, i.v. to mice, 0.5 mpk, 6 hours
# Description: The efficacy of the nanoparticle compositions presented in Table 1A was further evaluated by measuring the expression of modified luciferase in the liver, lung, spleen, and femur upon administration of a given composition. Formulations were administered intravenously to mice (n=3) at a dosage of 0.5 mpk and bioluminescence measured after 6 hours. The standard MC3 formulation and a PBS control were also tested. […] Flux in the liver was lowest for compositions including Compounds 58, 59, 137, and 141. Flux in the spleen was highest for compositions including Compounds 4, 7, 33, 34, 48, 53, 108, 129, 130, and 148, and lowest for compositions including Compounds 9, 59, 124, and 141.
# mice [3] = assay: Luc expression (total flux) after intramuscular administration; details: 6 hours after intramuscular administration, Luc mRNA (Table 5B)
smiles,measurement,setting,value
"CCCCCC=CCC=CCCCCCCCCC(CCCCCCCCC=CCC=CCCCCC)OC(=O)CCCN(C)C (centres unmarked) [MC3, heptatriaconta-6,9,28,31-tetraen-19-yl 4-(dimethylamino)butanoate, reference compound]",AUC (p/s*h),mice [1]; Luc total flux (Table 3D),1.909E+011 p/s*h
same,6 h Lipid/MC3 G.M. Luc Expression,"mice [1]; i.v. administration, 6 h, geometric mean",1
same,AUC (h*p/s),"mice [1]; i.v. administration, total Luc flux (Table 3C)",8.24E+10 h*p/s
same,Total Flux Femur,mice [2],2.56E+06
same,Total Flux Liver,mice [2],2.57E+09
same,Total Flux Lung,mice [2],1.27E+07
same,Total Flux Spleen,mice [2],2.85E+07
same,Total flux (p/s) 0.01 mpk Dose,mice [3],3.23E+07 p/s

# From patent US12404232B2, “Compounds and compositions for intracellular delivery of therapeutic agents” (ModernaTX, Inc., priority 2015, dated 2025)
